Assay results reported in article PMC9863751, “Specific Binding of the α-Component of the Lantibiotic Lichenicidin to the Peptidoglycan Precursor Lipid II Predetermines Its Antimicrobial Activity” (International Journal of Molecular Sciences, 2023).

Target: T1, Lchα (α-component of the lantibiotic lichenicidin) (Bacillus licheniformis, UniProt P86475)
T1 construct: gene lchA1; mature post-translationally modified lantibiotic, 32 residues (leader removed; N-terminal 2-oxobutyryl, Abu3-Cys7 ring A, four (methyl)lanthionine rings); native purification from culture supernatant, 15N-labelled, no tag
T1 sequence (P86475 43-74): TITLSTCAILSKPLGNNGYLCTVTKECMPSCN
Test: NMR titration ([…]-HSQC, Asn32 signal intensity)
Assay type: binding
Conditions: read-out: Kapp

`CC(=O)N[C@H]1[C@H](O[C@H]2[C@H](O[C@H](C)C(=O)N[C@@H](C)C(=O)N[C@H](CCC(=O)N[C@@H](CCCCN)C(=O)N[C@H](C)C(=O)N[C@H](C)C(=O)O)C(=O)O)[C@@H](NC(C)=O)[C@@H](OP(=O)(O)OP(=O)(O)OC/C=C(/C)CC/C=C(/C)CC/C=C(/C)CC/C=C(/C)CC/C=C(/C)CC/C=C(/C)CC/C=C(/C)CC/C=C(/C)CC/C=C(\C)CC/C=C(\C)CCC=C(C)C)O[C@@H]2CO)O[C@H](CO)[C@@H](O)[C@@H]1O` [lipid II] was tested, and the Kd was ~10 µM.
